Experimental data: PMC11625470 (Nature chemical biology, 2024)
Where two headings read alike, the source gives them in different places.

How the values were obtained:
bovine CNT3 (bCNT3) [1] = target: T1, bovine CNT3 (bCNT3) (Bos taurus, UniProt F1MGR1); experiment: cryo-EM structure; type: binding
T1 sequence (F1MGR1 1-699): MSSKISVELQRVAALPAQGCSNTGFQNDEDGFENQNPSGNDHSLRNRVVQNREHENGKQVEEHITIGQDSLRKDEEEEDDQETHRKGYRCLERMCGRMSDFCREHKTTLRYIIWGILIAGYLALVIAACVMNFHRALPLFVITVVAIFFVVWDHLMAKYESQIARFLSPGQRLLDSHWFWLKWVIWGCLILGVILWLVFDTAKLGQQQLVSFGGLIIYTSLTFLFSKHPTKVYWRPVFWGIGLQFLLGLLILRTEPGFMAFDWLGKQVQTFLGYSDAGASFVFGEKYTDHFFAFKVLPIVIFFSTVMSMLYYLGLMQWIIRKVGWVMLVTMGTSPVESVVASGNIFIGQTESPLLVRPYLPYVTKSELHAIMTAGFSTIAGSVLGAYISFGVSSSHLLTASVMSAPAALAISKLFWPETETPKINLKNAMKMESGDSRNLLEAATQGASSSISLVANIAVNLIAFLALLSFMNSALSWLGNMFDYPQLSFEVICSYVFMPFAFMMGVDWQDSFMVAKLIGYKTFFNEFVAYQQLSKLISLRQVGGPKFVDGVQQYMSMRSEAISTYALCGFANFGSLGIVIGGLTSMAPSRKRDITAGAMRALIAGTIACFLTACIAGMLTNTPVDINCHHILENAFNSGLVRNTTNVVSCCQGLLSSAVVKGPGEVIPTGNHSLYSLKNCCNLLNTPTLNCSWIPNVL

[2] = target: T2, human concentrative nucleoside transporter 3 (hCNT3) (Homo sapiens, UniProt Q9HAS3); experiment: cold competition of [3H]-ribavirin uptake in oocytes; type: cell-based
T2 sequence (Q9HAS3 1-691): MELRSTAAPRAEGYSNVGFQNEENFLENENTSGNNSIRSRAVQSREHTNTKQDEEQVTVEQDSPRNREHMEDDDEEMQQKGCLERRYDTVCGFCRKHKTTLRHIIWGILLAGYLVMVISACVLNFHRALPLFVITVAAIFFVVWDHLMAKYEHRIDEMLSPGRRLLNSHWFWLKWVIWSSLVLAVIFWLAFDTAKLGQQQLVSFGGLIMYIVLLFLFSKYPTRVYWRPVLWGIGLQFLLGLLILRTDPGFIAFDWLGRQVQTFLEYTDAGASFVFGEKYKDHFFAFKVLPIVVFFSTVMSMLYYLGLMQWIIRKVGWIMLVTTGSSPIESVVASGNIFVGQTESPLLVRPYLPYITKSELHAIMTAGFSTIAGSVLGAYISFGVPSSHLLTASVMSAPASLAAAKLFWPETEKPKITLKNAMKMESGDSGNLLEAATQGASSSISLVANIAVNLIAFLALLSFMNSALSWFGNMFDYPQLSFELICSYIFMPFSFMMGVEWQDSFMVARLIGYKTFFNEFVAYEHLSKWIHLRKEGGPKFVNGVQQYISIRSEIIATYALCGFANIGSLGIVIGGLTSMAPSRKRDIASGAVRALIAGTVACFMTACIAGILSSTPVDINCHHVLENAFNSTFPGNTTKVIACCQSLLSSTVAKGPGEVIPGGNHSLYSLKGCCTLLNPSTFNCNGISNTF

[3] = target: T2, human concentrative nucleoside transporter 3 (hCNT3); experiment: as above; type: cell-based; remark: listed apart in the source
bovine CNT3 (bCNT3) [4] = target: T1, bovine CNT3 (bCNT3); experiment: cryo-EM structure; type: binding; remark: listed apart in the source
[5] = target: T2, human concentrative nucleoside transporter 3 (hCNT3); experiment: cold competition of [3H]-ribavirin uptake in oocytes; type: cell-based; remark: listed apart in the source
cryo-EM structure = target: the molecule itself; experiment: cryo-EM structure

With `C[C@@]1(F)[C@H](O)[C@@H](CO)O[C@H]1n1ccc(=O)[nH]c1=O` [PSI-6206] the “cryo-EM structure (2.69 Å), inward-facing state” value (bovine CNT3 (bCNT3) [1]) was “The quality of the maps enabled unambiguous modeling of nucleoside drugs for NHC, PSI-6206, and ribavirin”.

In the case of `N#C[C@@]1(c2ccc3c(N)ncnn23)O[C@H](CO)[C@@H](O)[C@H]1O` [GS4, GS-441524], the IC50 [2] is reported as about 400 µM.

`CC(C)C(=O)OC[C@H]1O[C@@H](n2ccc(NO)nc2=O)[C@H](O)[C@@H]1O` [MPV, molnupiravir] showed an IC50 [3] of about 54 µM.

`O=c1nc(NO)ccn1[C@@H]1O[C@H](CO)[C@@H](O)[C@H]1O` [NHC, N^4-hydroxycytidine] was tested, and the “cryo-EM structure (2.74 Å), inward-facing state” value (bovine CNT3 (bCNT3) [4]) was “This substituent interacts with S380 in the bCNT3-NHC structure” and the IC50 [5] was about 13 µM.

B1: Bos taurus concentrative nucleoside transporter 3 (CNT3) (natural protein, UniProt F1MGR1 1-699, looked up)
chain: MSSKISVELQRVAALPAQGCSNTGFQNDEDGFENQNPSGNDHSLRNRVVQNREHENGKQVEEHITIGQDSLRKDEEEEDDQETHRKGYRCLERMCGRMSDFCREHKTTLRYIIWGILIAGYLALVIAACVMNFHRALPLFVITVVAIFFVVWDHLMAKYESQIARFLSPGQRLLDSHWFWLKWVIWGCLILGVILWLVFDTAKLGQQQLVSFGGLIIYTSLTFLFSKHPTKVYWRPVFWGIGLQFLLGLLILRTEPGFMAFDWLGKQVQTFLGYSDAGASFVFGEKYTDHFFAFKVLPIVIFFSTVMSMLYYLGLMQWIIRKVGWVMLVTMGTSPVESVVASGNIFIGQTESPLLVRPYLPYVTKSELHAIMTAGFSTIAGSVLGAYISFGVSSSHLLTASVMSAPAALAISKLFWPETETPKINLKNAMKMESGDSRNLLEAATQGASSSISLVANIAVNLIAFLALLSFMNSALSWLGNMFDYPQLSFEVICSYVFMPFAFMMGVDWQDSFMVAKLIGYKTFFNEFVAYQQLSKLISLRQVGGPKFVDGVQQYMSMRSEAISTYALCGFANFGSLGIVIGGLTSMAPSRKRDITAGAMRALIAGTIACFLTACIAGMLTNTPVDINCHHILENAFNSGLVRNTTNVVSCCQGLLSSAVVKGPGEVIPTGNHSLYSLKNCCNLLNTPTLNCSWIPNVL
B1 was tested, and the “stoichiometry N” value (cryo-EM structure) was 3.
